The source made the active and inactive calls. The calls are words filed in the database; no cut-off is given here.
How the values were obtained:
[1] = molecular target: Beta-2 adrenergic receptor (Homo sapiens) (UniProt P07550); experiment: Displacement of [3H]-CGP-12177 from adrenergic beta2 receptor (unknown origin) at 1 uM
[2] = molecular target: Neuromedin-B receptor (Homo sapiens) (UniProt P28336); experiment: Displacement of [125I]-(Tyr4)-bombesin from bombesin BB1 receptor (unknown origin) at 1 uM
[3] = molecular target: Gastrin-releasing peptide receptor (Homo sapiens) (UniProt P30550); experiment: Displacement of [125I]-(Tyr4)-bombesin from bombesin BB2 receptor (unknown origin) at 1 uM
[4] = Metabolic stability in mouse microsomes assessed as amount of parent compound remaining after 5 mins; type: ADME, Microsome; conditions: read-out: Stability
[5] = Metabolic stability in rat microsomes assessed as amount of parent compound remaining after 5 mins; type: ADME, Microsome; conditions: read-out: Stability
CYP2C19 = CYP2C19 (Homo sapiens, UniProt P33261); experiment: Inhibition on CYP2C19 (unknown origin) at 1 uM; type: ADME
Albumin = Albumin (Homo sapiens, UniProt P02768); experiment: Binding affinity to human serum albumin at 60 uM; type: ADME; conditions: isolated protein
[6] = molecular target: Adenosine receptor A2a (Homo sapiens) (UniProt P29274); experiment: Displacement of [3H]-CGS21680 from adenosine A2A receptor (unknown origin) at 1 uM
[7] = molecular target: Beta-1 adrenergic receptor (Homo sapiens) (UniProt P08588); experiment: Displacement of [125I]-cyanopindolol from adrenergic beta1 receptor (unknown origin) at 1 uM
[8] = molecular target: B1 bradykinin receptor (Homo sapiens) (UniProt P46663); experiment: Displacement of [3H]-(Des-Arg10)-Kallidin from bradykinin B1 receptor (unknown origin) at 1 uM
[9] = molecular target: B2 bradykinin receptor (Homo sapiens) (UniProt P30411); experiment: Displacement of [3H]-bradykinin from bradykinin B2 receptor (unknown origin) at 1 uM
[10] = molecular target: C-C chemokine receptor type 4 (Homo sapiens) (UniProt P51679); experiment: Displacement of [125I]-TARC from CCR4 receptor (unknown origin) at 1 uM
[11] = molecular target: C-C chemokine receptor type 5 (Homo sapiens) (UniProt P51681); experiment: Displacement of [125I]-MIP-1beta from CCR5 receptor (unknown origin) at 1 uM
[12] = molecular target: C-X-C chemokine receptor type 2 (Homo sapiens) (UniProt P25025); experiment: Displacement of [125I]-IL-8 from CXCR2 receptor (unknown origin) at 1 uM
[13] = molecular target: D(1A) dopamine receptor (Homo sapiens) (UniProt P21728); experiment: Displacement of [3H]-SCH-23390 from dopamine D1 receptor (unknown origin) at 1 uM
[14] = molecular target: D(2) dopamine receptor (Homo sapiens) (UniProt P14416); experiment: Displacement of [3H]-sp iperone from dopamine D2 receptor (unknown origin) at 1 uM
[15] = molecular target: D(3) dopamine receptor (Homo sapiens) (UniProt P35462); experiment: Displacement of [3H]-sp iperone from dopamine D3 receptor (unknown origin) at 1 uM
[16] = molecular target: Endothelin-1 receptor (Homo sapiens) (UniProt P25101); experiment: Displacement of [125I]-endothelin-1 from endothelin ETA receptor (unknown origin) at 1 uM
[17] = molecular target: Endothelin receptor type B (Homo sapiens) (UniProt P24530); experiment: Displacement of [125I]-endothelin-1 from endothelin ETB receptor (unknown origin) at 1 uM
Homo sapiens [18] = organism: Homo sapiens; experiment: Displacement of [3H]-muscimol from […] GABAA receptor (unknown origin) at 1 uM
Homo sapiens [19] = organism: Homo sapiens; experiment: Displacement of [3H]-flunitrazepam from […] GABAA receptor (unknown origin) at 1 uM
Homo sapiens [20] = organism: Homo sapiens; experiment: Displacement of [3H]-CGP-54626 from […] GABAB receptor (unknown origin) at 1 uM
[21] = molecular target: Glutamate [NMDA] receptor (Homo sapiens) (UniProt Q05586+Q12879+Q13224+O15399+O60391+Q14957+Q8TCU5); experiment: Displacement of [3H]-MDL-105519 from glutamate NMDA receptor glycine binding site (unknown origin) at 1 uM
Histamine H2 receptor = Histamine H2 receptor (Homo sapiens, UniProt P25021); experiment: Displacement of [125I]-aminopotentidine receptor from histamine H2 receptor (unknown origin) at 1 uM
[22] = molecular target: Muscarinic acetylcholine receptor M1 (Homo sapiens) (UniProt P11229); experiment: Displacement of [3H]-N-methylscopolamine from muscarinic M1 receptor (unknown origin) at 1 uM
[23] = molecular target: Muscarinic acetylcholine receptor M2 (Homo sapiens) (UniProt P08172); experiment: Displacement of [3H]-N-methylscopolamine from muscarinic M2 receptor (unknown origin) at 1 uM
[24] = molecular target: Muscarinic acetylcholine receptor M3 (Homo sapiens) (UniProt P20309); experiment: Displacement of [3H]-N-methylscopolamine from muscarinic M3 receptor (unknown origin) at 1 uM
Homo sapiens [25] = organism: Homo sapiens; experiment: Displacement of [125I]-epibatidine from nicotinic acetylcholine receptor (unknown origin) at 1 uM
[26] = molecular target: Kappa-type opioid receptor (Homo sapiens) (UniProt P41145); experiment: Displacement of [3H]-d iprenorphine from kappa opioid receptor (unknown origin) at 1 uM
[27] = molecular target: Mu-type opioid receptor (Homo sapiens) (UniProt P35372); experiment: Displacement of [3H]-d iprenorphine from mu opioid receptor (unknown origin) at 1 uM
Homo sapiens [28] = organism: Homo sapiens; experiment: Displacement of [3H]-alpha-5-methylene-ATP from purinergic P2x receptor (unknown origin) at 1 uM
Homo sapiens [29] = organism: Homo sapiens; experiment: Displacement of [35S]-ATP-alpha-S from purinergic P2y receptor (unknown origin) at 1 uM
[30] = molecular target: 5-hydroxytryptamine receptor 1A (Homo sapiens) (UniProt P08908); experiment: Displacement of [3H]-8-OH-DPAT from 5-HT1A receptor (unknown origin) at 1 uM
[31] = molecular target: 5-hydroxytryptamine receptor 3A (Homo sapiens) (UniProt P46098); experiment: Displacement of [3H]-GR-65630 from 5-HT3 receptor (unknown origin) at 1 uM
Mus musculus [32] = experiment: Toxicity in mouse assessed as diarrhea at 100 mg/kg, ip by Irwin test; type: organism-based; conditions: in vivo
Mus musculus [33] = experiment: Toxicity in mouse assessed as writhing at 100 mg/kg, ip by Irwin test; type: organism-based; conditions: in vivo
Mus musculus [34] = experiment: Toxicity in mouse at 1 mg/kg, ip by Irwin test; type: organism-based; conditions: in vivo
Mus musculus [35] = experiment: Toxicity in mouse assessed as diarrhea at 30 mg/kg, ip measured for 60 mins by Irwin test; type: organism-based; conditions: in vivo, 1 h
[36] = molecular target: Sigma non-opioid intracellular receptor 1 (Cavia porcellus) (UniProt Q60492); experiment: Agonist activity at sigma1 receptor assessed as potentiation of electrically stimulated contractions of the guinea pig vas deferens relative to (S)-3-PPP
Rattus norvegicus = experiment: Analgesic activity in rat assessed as inhibition of formalin-induced pain by measuring time spent licking injected paw in late phase (10 to 35 min) administered at 10 mg/kg by two-phase analgesic formalin assay; type: functional, organism-based
[37] = molecular target: Adenosine receptor A3 (Homo sapiens) (UniProt P0DMS8); experiment: Displacement of [125I]-AB-MECA from adenosine A3 receptor (unknown origin) at 1 uM
Adenosine receptor A3 (Homo sapiens), sequence (P0DMS8 whole entry, looked up): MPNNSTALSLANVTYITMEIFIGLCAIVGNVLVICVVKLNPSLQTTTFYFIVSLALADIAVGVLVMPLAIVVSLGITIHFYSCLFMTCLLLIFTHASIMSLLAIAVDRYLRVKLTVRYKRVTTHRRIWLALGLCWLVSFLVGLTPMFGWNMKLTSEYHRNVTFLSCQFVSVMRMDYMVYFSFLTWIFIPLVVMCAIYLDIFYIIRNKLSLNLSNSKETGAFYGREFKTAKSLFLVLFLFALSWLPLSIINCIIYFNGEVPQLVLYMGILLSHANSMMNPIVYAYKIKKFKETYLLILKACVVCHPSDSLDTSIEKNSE

B1 bradykinin receptor (Homo sapiens), sequence (P46663 whole entry): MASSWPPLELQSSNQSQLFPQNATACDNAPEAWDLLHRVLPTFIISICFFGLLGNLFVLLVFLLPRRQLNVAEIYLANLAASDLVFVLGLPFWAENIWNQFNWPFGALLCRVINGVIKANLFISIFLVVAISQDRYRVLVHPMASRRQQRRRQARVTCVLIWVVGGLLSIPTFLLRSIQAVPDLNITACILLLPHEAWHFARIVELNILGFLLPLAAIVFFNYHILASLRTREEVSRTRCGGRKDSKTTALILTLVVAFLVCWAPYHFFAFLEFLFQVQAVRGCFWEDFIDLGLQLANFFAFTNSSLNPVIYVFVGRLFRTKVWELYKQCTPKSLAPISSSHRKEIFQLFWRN
Albumin, sequence (P02768 whole entry): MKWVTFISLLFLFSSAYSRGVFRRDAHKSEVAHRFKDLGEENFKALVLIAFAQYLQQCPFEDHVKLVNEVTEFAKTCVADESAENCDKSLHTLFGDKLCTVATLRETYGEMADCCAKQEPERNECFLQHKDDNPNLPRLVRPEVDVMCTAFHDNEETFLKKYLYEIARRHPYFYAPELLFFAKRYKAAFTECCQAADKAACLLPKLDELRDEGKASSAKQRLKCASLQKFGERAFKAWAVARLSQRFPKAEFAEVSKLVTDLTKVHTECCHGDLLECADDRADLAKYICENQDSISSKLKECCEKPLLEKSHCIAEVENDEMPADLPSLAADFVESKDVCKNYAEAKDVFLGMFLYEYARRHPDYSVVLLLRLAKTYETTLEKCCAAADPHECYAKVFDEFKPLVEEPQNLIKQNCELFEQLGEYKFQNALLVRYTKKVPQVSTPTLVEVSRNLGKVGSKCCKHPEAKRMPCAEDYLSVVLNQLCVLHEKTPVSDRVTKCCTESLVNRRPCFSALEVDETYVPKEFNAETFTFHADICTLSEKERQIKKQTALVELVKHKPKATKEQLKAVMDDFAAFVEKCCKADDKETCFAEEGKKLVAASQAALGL
Histamine H2 receptor, sequence (P25021 whole entry): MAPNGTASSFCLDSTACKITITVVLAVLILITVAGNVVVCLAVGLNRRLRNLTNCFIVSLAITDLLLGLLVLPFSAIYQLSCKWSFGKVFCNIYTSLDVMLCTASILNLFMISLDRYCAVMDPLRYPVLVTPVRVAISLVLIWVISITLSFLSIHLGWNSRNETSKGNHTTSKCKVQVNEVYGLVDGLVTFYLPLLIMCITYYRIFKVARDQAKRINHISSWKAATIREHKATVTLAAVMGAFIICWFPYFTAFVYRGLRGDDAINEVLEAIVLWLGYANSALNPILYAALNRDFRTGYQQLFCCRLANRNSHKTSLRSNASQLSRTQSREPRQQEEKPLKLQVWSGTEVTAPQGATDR
Endothelin receptor type B (Homo sapiens), sequence (P24530 whole entry): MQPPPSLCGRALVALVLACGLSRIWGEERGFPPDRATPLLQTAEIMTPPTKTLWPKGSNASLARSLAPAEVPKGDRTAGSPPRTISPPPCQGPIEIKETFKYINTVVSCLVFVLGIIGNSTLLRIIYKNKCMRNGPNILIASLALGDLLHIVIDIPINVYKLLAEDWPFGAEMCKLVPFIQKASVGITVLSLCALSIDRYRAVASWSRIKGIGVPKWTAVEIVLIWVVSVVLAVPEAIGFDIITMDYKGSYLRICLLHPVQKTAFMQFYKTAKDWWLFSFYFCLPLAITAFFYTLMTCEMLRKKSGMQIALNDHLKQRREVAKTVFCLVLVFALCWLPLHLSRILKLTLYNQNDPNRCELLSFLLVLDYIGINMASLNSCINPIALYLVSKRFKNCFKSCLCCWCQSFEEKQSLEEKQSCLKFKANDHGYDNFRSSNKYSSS
D(1A) dopamine receptor (Homo sapiens), sequence (P21728 whole entry): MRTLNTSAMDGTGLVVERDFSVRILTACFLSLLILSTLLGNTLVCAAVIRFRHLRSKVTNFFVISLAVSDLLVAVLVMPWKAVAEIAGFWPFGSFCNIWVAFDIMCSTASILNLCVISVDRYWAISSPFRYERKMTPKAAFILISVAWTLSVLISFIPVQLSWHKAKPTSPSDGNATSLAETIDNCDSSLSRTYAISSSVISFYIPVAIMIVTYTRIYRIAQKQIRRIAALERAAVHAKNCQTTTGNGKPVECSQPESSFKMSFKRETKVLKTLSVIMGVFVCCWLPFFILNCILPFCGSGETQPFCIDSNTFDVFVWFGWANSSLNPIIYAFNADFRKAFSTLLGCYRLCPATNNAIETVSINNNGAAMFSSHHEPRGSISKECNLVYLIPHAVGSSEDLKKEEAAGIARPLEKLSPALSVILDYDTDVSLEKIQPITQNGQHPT
Muscarinic acetylcholine receptor M3 (Homo sapiens), sequence (P20309 whole entry, looked up): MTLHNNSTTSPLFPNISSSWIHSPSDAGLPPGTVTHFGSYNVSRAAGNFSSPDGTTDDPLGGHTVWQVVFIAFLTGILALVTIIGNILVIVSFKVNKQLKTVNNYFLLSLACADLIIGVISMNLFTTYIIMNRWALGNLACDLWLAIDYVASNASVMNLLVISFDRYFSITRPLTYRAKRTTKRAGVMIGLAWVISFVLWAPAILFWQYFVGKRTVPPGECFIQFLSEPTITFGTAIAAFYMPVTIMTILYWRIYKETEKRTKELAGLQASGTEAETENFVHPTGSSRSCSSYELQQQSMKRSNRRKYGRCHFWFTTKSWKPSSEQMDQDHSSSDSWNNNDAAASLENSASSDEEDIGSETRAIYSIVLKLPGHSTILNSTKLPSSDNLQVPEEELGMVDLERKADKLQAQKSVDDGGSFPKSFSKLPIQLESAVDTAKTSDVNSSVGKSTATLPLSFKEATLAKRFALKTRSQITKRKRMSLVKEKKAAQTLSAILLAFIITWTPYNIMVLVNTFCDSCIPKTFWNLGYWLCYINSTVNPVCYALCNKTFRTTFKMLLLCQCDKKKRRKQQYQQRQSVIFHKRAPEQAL
C-C chemokine receptor type 4 (Homo sapiens), sequence (P51679 whole entry): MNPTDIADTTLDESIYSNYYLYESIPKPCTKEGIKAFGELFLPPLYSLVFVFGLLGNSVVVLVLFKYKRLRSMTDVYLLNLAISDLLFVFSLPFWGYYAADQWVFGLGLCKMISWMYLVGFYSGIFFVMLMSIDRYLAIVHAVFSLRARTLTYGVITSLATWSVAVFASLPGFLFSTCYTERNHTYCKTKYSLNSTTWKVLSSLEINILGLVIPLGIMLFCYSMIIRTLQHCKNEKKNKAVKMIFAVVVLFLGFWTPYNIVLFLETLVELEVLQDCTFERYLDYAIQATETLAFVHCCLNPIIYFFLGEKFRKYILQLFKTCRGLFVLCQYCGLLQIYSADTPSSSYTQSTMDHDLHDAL
5-hydroxytryptamine receptor 1A (Homo sapiens), sequence (P08908 whole entry): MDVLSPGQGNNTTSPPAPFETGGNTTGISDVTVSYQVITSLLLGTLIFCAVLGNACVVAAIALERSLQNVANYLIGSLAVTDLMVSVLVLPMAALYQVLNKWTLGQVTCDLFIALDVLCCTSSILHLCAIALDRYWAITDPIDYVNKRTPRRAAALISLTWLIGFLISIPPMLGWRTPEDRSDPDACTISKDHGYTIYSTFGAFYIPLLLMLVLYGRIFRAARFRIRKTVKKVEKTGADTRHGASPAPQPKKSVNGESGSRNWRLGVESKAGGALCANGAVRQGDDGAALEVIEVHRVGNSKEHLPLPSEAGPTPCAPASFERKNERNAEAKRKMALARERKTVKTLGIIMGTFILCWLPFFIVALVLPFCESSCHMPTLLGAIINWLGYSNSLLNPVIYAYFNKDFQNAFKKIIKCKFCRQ
Gastrin-releasing peptide receptor (Homo sapiens), sequence (P30550 whole entry, looked up): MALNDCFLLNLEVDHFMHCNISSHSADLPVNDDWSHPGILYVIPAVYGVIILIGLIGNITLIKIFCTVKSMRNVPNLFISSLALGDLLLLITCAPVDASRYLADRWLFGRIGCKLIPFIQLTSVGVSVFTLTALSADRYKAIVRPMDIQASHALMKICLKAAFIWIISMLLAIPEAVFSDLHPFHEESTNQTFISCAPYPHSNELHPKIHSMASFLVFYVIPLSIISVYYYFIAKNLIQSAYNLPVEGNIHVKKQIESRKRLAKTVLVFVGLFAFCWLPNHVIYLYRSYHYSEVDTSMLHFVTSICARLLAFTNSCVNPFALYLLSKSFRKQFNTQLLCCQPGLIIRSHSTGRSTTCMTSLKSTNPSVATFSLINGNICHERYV
B2 bradykinin receptor (Homo sapiens), sequence (P30411 whole entry): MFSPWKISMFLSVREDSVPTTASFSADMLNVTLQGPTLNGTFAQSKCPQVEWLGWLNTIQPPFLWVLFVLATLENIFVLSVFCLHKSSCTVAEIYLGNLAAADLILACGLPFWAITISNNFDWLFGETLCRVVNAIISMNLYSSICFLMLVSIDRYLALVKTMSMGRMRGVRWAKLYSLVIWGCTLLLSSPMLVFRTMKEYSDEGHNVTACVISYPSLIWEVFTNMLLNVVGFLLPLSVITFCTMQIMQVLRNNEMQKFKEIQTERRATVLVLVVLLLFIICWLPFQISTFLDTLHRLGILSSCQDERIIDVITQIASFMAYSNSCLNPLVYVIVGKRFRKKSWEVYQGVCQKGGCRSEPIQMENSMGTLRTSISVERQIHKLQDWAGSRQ
Sigma non-opioid intracellular receptor 1 (Cavia porcellus), sequence (Q60492 whole entry): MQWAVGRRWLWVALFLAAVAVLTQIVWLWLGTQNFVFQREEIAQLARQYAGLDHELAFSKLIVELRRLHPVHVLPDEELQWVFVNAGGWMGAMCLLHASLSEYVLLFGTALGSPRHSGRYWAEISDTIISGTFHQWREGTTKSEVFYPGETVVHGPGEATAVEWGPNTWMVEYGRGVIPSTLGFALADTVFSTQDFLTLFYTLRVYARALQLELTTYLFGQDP

inhibition [1]: inactive | inhibition [2]: inactive | inhibition [3]: inactive | remaining at 5 min [4]: < 50% | remaining at 5 min [5]: < 50% | inhibition at 1 µM (CYP2C19): 38% | PB (Albumin): 1.6% | inhibition [6]: inactive | inhibition [7]: inactive | inhibition [8]: inactive | inhibition [9]: inactive | inhibition [10]: inactive | inhibition [11]: inactive | inhibition [12]: inactive | inhibition [13]: inactive | inhibition [14]: inactive | inhibition [15]: inactive | inhibition [16]: inactive | inhibition [17]: inactive | inhibition (Homo sapiens [18]): inactive | inhibition (Homo sapiens [19]): inactive | inhibition (Homo sapiens [20]): inactive | inhibition [21]: inactive | inhibition (Histamine H2 receptor): 50% | inhibition [22]: inactive | inhibition [23]: inactive | inhibition [24]: inactive | inhibition (Homo sapiens [25]): inactive | inhibition [26]: inactive | inhibition [27]: inactive | inhibition (Homo sapiens [28]): inactive | inhibition (Homo sapiens [29]): inactive | inhibition [30]: inactive | inhibition [31]: inactive | Activity [36]: Dose-dependent effect | inhibition [37]: inactive
Compound: COc1ccc(CN2CCCN(Cc3ccccc3)[C@@H](C)C2)cc1
Activity (Mus musculus [32]): Toxic | Activity (Mus musculus [33]): Toxic | Activity (Mus musculus [34]): Non-Toxic | Activity (Mus musculus [35]): Toxic | Activity (Rattus norvegicus): Active

Reference: ChEMBL document CHEMBL4043136, “Chiral-pool synthesis of 1,2,4-trisubstituted 1,4-diazepanes as novel σ1 receptor ligands” (Bioorg Med Chem, 2017)
